The subject of the assay is P388 leukemia ip, CD2F1 mice, survival T/C. The experiment in a line: NCI In Vivo Anticancer Drug Screen. Data for tumor model P388 Leukemia (intraperitoneal) in CD2F1 (CDF1) mice. The following applies: endpoint: median survival time, higher = longer survival. A digest of the protocol:
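Mice carrying the transplanted tumor received test compound or vehicle. Survival was recorded in each group, and the value is the treated-group measurement divided by that of the vehicle-treated control group.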

Where [1] appears, read: dose: 60.0 mg/kg/injection, schedule: Q01DX005 (ip), vehicle: saline with Tween-80.
Where [2] appears, read: dose: 120.0 mg/kg/injection, schedule: Q01DX005 (ip), vehicle: saline with Tween-80.
[3] abbreviates: dose: 100.0 mg/kg/injection, schedule: Q01DX001 (ip), vehicle: saline with Tween-80.
[4] abbreviates: dose: 200.0 mg/kg/injection, schedule: Q01DX001 (ip), vehicle: saline with Tween-80.
Where [5] appears, read: dose: 50.0 mg/kg/injection, schedule: Q01DX009 (ip), vehicle: saline with Tween-80.
[6] abbreviates: dose: 100.0 mg/kg/injection, schedule: Q01DX009 (ip), vehicle: saline with Tween-80.
[7] abbreviates: dose: 200.0 mg/kg/injection, schedule: Q01DX009 (ip), vehicle: saline with Tween-80.
[8] abbreviates: dose: 50.0 mg/kg/injection, schedule: Q01DX009 (ip), vehicle: saline.
Setting [9] is: dose: 100.0 mg/kg/injection, schedule: Q01DX009 (ip), vehicle: saline.
Setting [10] is: dose: 200.0 mg/kg/injection, schedule: Q01DX009 (ip), vehicle: saline.
The mark [11] stands for this setting: dose: 100.0 mg/kg/injection, schedule: Q01DX001 (ip), vehicle: Klucel (hydroxypropylcellulose) (HPC).
[12] abbreviates: dose: 200.0 mg/kg/injection, schedule: Q01DX001 (ip), vehicle: Klucel (hydroxypropylcellulose) (HPC).
[13] abbreviates: dose: 400.0 mg/kg/injection, schedule: Q01DX001 (ip), vehicle: Klucel (hydroxypropylcellulose) (HPC).
[14] abbreviates: dose: 240.0 mg/kg/injection, schedule: Q01DX005 (ip), vehicle: saline with Tween-80.

This note sets out measurements from PubChem BioAssay AID330 (DTP/NCI, 2004).

“And” between values parts separate entries of the source, which are not always exact repeats. Equal entries are not always repeated. Inconclusive results and toxic doses are left out.

`CC(=O)C(=Cc1ccc(C=C(C(C)=O)C(C)=O)cc1)C(C)=O`: the T/C is 114 % of control under setting [1] and 111 % of control under setting [2].

`C=C[C@@H]1C[C@@]2(C)O[C@@H]([C@@H](OCc3ccccc3)[C@@H]1OC)[C@@H](C)O2`: the T/C was 96 % of control under setting [3]; 104 % of control under setting [4]; 104 % of control (dose: 400.0 mg/kg/injection, schedule: Q01DX001 (ip), vehicle: saline with Tween-80).

With `O=C(O)CN1C(=O)c2cccc3cccc(c23)C1=O`, the T/C (dose: 50.0 mg/kg/injection, schedule: Q01DX009 (ip), vehicle: suspension in saline) is 101 % of control; the T/C (dose: 100.0 mg/kg/injection, schedule: Q01DX009 (ip), vehicle: suspension in saline) is 102 % of control; the T/C (dose: 200.0 mg/kg/injection, schedule: Q01DX009 (ip), vehicle: suspension in saline) is 100 % of control.

On to `CCOC(=O)/C=C(\C)Nc1ccccc1N`, for which the T/C was 97 % of control under setting [3] and 93 % of control under setting [4].

On to `O=S(=O)(O)c1ccc(-c2c3nc(c(-c4ccc(S(=O)(=O)O)cc4)c4ccc([nH]4)c(-c4ccc(S(=O)(=O)O)cc4)c4nc(c(-c5ccc(S(=O)(=O)O)cc5)c5ccc2[nH]5)C=C4)C=C3)cc1`, for which the T/C is, setting by setting: (dose: 1.56 mg/kg/injection, schedule: Q01DX009 (ip), vehicle: distilled water + Tween-80) 97 % of control; (dose: 3.13 mg/kg/injection, schedule: Q01DX009 (ip), vehicle: distilled water + Tween-80) 100 % of control; (dose: 6.25 mg/kg/injection, schedule: Q01DX009 (ip), vehicle: distilled water + Tween-80) 100 % of control; (dose: 12.5 mg/kg/injection, schedule: Q01DX009 (ip), vehicle: distilled water + Tween-80) 102 % of control and 109 % of control.

Consider `C#CC(O)(c1ccccc1)c1ccc(N2CCOCC2)cc1` (stereo not given), for which the T/C runs as follows: (dose: 25.0 mg/kg/injection, schedule: Q01DX009 (ip), vehicle: saline with Tween-80) 95 % of control; under setting [5], 98 % of control; under setting [6], 98 % of control; under setting [7], 97 % of control.

`O=c1cc(O)n(-c2ccccc2)c(=O)n1-c1ccccc1`: the T/C was 102 % of control (dose: 75.0 mg/kg/injection, schedule: Q01DX009 (ip), vehicle: saline with Tween-80); 100 % of control (dose: 150.0 mg/kg/injection, schedule: Q01DX009 (ip), vehicle: saline with Tween-80); 100 % of control (dose: 300.0 mg/kg/injection, schedule: Q01DX009 (ip), vehicle: saline with Tween-80).

On to `C=CC(C)(C)c1[nH]c2ccccc2c1CC1NC(=O)C(C)NC1=O` (stereo not given), for which the T/C by setting is: (dose: 12.5 mg/kg/injection, schedule: Q01DX009 (ip), vehicle: Klucel (hydroxypropylcellulose) (HPC)) 86 % of control; (dose: 50.0 mg/kg/injection, schedule: Q01DX009 (ip), vehicle: Klucel (hydroxypropylcellulose) (HPC)) 92 % of control.

Consider `CC(=O)Nc1ccc(S(=O)(=O)Nc2ccc3[nH]c(=O)oc3c2)cc1`, for which the T/C is 104 % of control (dose: 50.0 mg/kg/injection, schedule: Q04DX002 (ip), vehicle: Klucel (hydroxypropylcellulose) (HPC)); 97 % of control (dose: 100.0 mg/kg/injection, schedule: Q04DX002 (ip), vehicle: Klucel (hydroxypropylcellulose) (HPC)); 97 % of control (dose: 200.0 mg/kg/injection, schedule: Q04DX002 (ip), vehicle: Klucel (hydroxypropylcellulose) (HPC)).

For the molecule `COc1ccc(Cc2c3cc(OC)c(OC)cc3cc[n+]2CC(=O)c2ccc(F)cc2)cc1OC`, the T/C is, setting by setting: (dose: 25.0 mg/kg/injection, schedule: Q01DX005 (ip), vehicle: Klucel (hydroxypropylcellulose) (HPC)) 108 % of control; (dose: 50.0 mg/kg/injection, schedule: Q01DX005 (ip), vehicle: Klucel (hydroxypropylcellulose) (HPC)) 100 % of control.

On to `CC1(C)CC(OC(=O)Oc2c3ccccc3c3ccc4cccc5ccc2c3c54)CC(C)(C)N1O`, for which the T/C is 97 % of control under setting [5], 97 % of control under setting [6] and 103 % of control under setting [7].

With `COCC(=O)Oc1ccc[nH]c1=O`, the T/C runs as follows: (dose: 12.5 mg/kg/injection, schedule: Q01DX009 (ip), vehicle: saline) 101 % of control and 113 % of control; (dose: 25.0 mg/kg/injection, schedule: Q01DX009 (ip), vehicle: saline) 103 % of control and 107 % of control; under setting [8], 100 % of control and 106 % of control; under setting [9], 106 % of control and 113 % of control; under setting [10], 100 % of control and 103 % of control.

As to `Brc1cc2cccnc2c2ccccc12`, the T/C is, setting by setting: under setting [11], 98 % of control; under setting [12], 94 % of control; under setting [13], 97 % of control.

`C=Cc1ccc2cccc(O)c2n1`: the T/C (dose: 25.0 mg/kg/injection, schedule: Q01DX001 (ip), vehicle: saline with Tween-80) is 106 % of control; the T/C (dose: 50.0 mg/kg/injection, schedule: Q01DX001 (ip), vehicle: saline with Tween-80) is 106 % of control; the T/C under setting [3] is 89 % of control and 94 % of control.

As to `CC(C)(C)C(=O)CC(=O)C(F)(F)C(F)(F)C(F)(F)F.CC(C)(C)C(=O)CC(=O)C(F)(F)C(F)(F)C(F)(F)F.CC(C)(C)C(=O)CC(=O)C(F)(F)C(F)(F)C(F)(F)F.[Gd]`, the T/C runs as follows: under setting [1], 105 % of control; under setting [2], 110 % of control; under setting [14], 105 % of control.

As for `CCC1COCC1Cc1cncn1C` (stereo not given), the T/C was 100 % of control (dose: 60.0 mg/kg/injection, schedule: Q01DX005 (ip), vehicle: saline) and 103 % of control (dose: 120.0 mg/kg/injection, schedule: Q01DX005 (ip), vehicle: saline).

On to `Cc1noc(N)c1-n1c(C)ccc1C`, for which the T/C is 95 % of control (dose: 100.0 mg/kg/injection, schedule: Q04DX003 (ip), vehicle: saline with Tween-80); 100 % of control (dose: 200.0 mg/kg/injection, schedule: Q04DX003 (ip), vehicle: saline with Tween-80); 100 % of control (dose: 400.0 mg/kg/injection, schedule: Q04DX003 (ip), vehicle: saline with Tween-80).

As for `CCc1nc2c(Br)c3oc(CC)nc3c(Br)c2o1`, the T/C is 103 % of control (dose: 60.0 mg/kg/injection, schedule: Q01DX005 (ip), vehicle: Klucel (hydroxypropylcellulose) (HPC)); 100 % of control (dose: 120.0 mg/kg/injection, schedule: Q01DX005 (ip), vehicle: Klucel (hydroxypropylcellulose) (HPC)); 90 % of control (dose: 240.0 mg/kg/injection, schedule: Q01DX005 (ip), vehicle: Klucel (hydroxypropylcellulose) (HPC)).

As to `Cc1ccc(NC(=O)c2cc3ccccc3cc2O)c(C)c1.Cc1ccc(NC(=O)c2cc3ccccc3cc2O)c(C)c1.[Mn+2]`, the T/C is 87 % of control under setting [8], 86 % of control under setting [9] and 86 % of control under setting [10].

As for `CN1CCCN(C)C1c1cc(Br)ccc1O`, the T/C by setting is: (dose: 6.25 mg/kg/injection, schedule: Q01DX009 (ip), vehicle: saline sonified) 95 % of control; (dose: 12.5 mg/kg/injection, schedule: Q01DX009 (ip), vehicle: saline sonified) 90 % of control; (dose: 25.0 mg/kg/injection, schedule: Q01DX009 (ip), vehicle: saline sonified) 100 % of control.

For the molecule `NC(=S)c1ccc(N=Cc2cccs2)cc1`, the T/C by setting is: under setting [11], 108 % of control; under setting [12], 105 % of control; under setting [13], 102 % of control.

On to `Cc1ccc(CC2CC(=O)NC2=O)cc1` (stereo not given), for which the T/C by setting is: under setting [1], 105 % of control; under setting [2], 93 % of control; under setting [14], 96 % of control.
